In patent publication US5705487A, “Antithrombotic agents” (priority 1995, dated 1998):
Counter-ions that a name gives are not always drawn.

How the values were obtained:
Format in all cases: biochemical
[1] = biological target: T1, t-PA (Homo sapiens, UniProt P00750); test: Kass, t-PA chromogenic substrate assay; settings: substrate H-D-Ile-Pro-Arg-p-nitroanilide
T1 construct: purchased American Diagnostica, Greenwich, Conn

[2] = biological target: T2, Human plasmin (Homo sapiens, UniProt P00747); test: Kass, plasmin chromogenic substrate assay; settings: substrate H-D-Val-Leu-Lys-p-nitroanilide
T2 construct: Human plasmin is purchased from Boehringer Mannheim; purchased Boehringer Mannheim, Indianapolis, Ind

[3] = biological target: T3, factor Xa (Homo sapiens, UniProt P00742); test: Kass, factor Xa chromogenic substrate assay; settings: substrate N-Benzoyl-Ile-Glu-Gly-Arg-p-nitroanilide
T3 construct: Human factors X, Xa, IXa, XIa, and XIIa are purchased; purchased Enzyme Research Laboratories, South Bend, Ind

[4] = test system: Human Plasma; test: Human plasma anticoagulation, prothrombin time (PT); settings: concentration required to double the clotting time
Method: (§1) Dog plasma and rat plasma is obtained from conscious mixed-breed hounds (either sex, Hazelton-LRE, Kalamazoo, Mich., U.S.A.) or from anesthetized male Sprague-Dawley rats (Harlan Sprague-Dawley, Inc., Indianapolis, Ind., U.S.A.) by venipuncture into 3.8 percent citrate. Fibrinogen is prepared from in-date ACD human blood as the fraction I-2 according to previous procedures and specifications. […] Human fibrinogen is also purchased as 98 percent pure/plasmin free from American Diagnostica, Greenwich, Conn. Coagulation reagents ACTIN, Thromboplastin, and Human plasma are from Baxter Healthcare Corp., Dade Division, Miami, Fla. Bovine thrombin from Parke-Davis ([…], Mich.) is used for coagulation assays in plasma.
(§2) Coagulation assay procedures are as previously described. […] A CoAScreener coagulation instrument (American LABor, Inc.) is used for all coagulation assay measurements. The prothrombin time (PT) is measured by adding 0.05 mL saline and 0.05 mL Thromboplastin-C reagent to 0.05 mL test plasma. The activated partial thromboplastin time (APTT) is measured by incubation of 0.05 mL test plasma with 0.05 mL Actin reagent for 120 seconds followed by 0.05 mL CaCl2 (0.02M). The thrombin time (TT) is measured by adding 0.05 mL saline and 0.05 mL thrombin (10 NIH units/mL) to 0.05 mL test plasma. The compounds of Formula I are added to human or animal plasma over a wide range of concentrations to determine prolongation effects on the APTT, PT, and TT assays. Linear extrapolations are performed to estimate the concentrations required to double the clotting time for each assay.

[5] = test system: Human Plasma; test: Human plasma anticoagulation, thrombin time (TT); settings: concentration required to double the clotting time
Method: as §1, §2

[6] = test system: Human Plasma; test: Human plasma anticoagulation, activated partial thromboplastin time (APTT); settings: concentration required to double the clotting time
Method: as §1, §2

[7] = biological target: Human Thrombin (Homo sapiens, UniProt P00734); test: Inhibition of the amidase activity of thrombin (Kass); settings: chromogenic substrate N-benzoyl-Phe-Val-Arg-p-nitroanilide; mean over range of concentrations
[8] = biological target: T4, Bovine trypsin (Bos taurus, UniProt P00760); test: Kass, trypsin chromogenic substrate assay; settings: substrate N-Benzoyl-Phe-Val-Arg-p-nitroanilide
T4 construct: Bovine trypsin is purchased from Worthington Biochemicals; purchased Worthington Biochemicals, Freehold, N.J
T4 sequence (P00760 24-246): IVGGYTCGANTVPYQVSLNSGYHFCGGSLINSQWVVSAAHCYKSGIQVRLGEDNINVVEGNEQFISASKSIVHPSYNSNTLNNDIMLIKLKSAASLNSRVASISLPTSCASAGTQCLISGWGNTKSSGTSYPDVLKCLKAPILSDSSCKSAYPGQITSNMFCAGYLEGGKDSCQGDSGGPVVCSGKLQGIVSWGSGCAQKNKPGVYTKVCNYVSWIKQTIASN

T2 sequence (P00747 581-810 limits assumed): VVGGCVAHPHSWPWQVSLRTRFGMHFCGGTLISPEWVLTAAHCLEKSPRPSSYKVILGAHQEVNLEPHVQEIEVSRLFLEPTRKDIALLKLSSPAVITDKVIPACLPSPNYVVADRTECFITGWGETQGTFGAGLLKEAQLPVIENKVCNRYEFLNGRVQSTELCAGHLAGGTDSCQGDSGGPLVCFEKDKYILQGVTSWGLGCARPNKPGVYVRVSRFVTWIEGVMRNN
T2 sequence (P00747 97-580 partner limits assumed): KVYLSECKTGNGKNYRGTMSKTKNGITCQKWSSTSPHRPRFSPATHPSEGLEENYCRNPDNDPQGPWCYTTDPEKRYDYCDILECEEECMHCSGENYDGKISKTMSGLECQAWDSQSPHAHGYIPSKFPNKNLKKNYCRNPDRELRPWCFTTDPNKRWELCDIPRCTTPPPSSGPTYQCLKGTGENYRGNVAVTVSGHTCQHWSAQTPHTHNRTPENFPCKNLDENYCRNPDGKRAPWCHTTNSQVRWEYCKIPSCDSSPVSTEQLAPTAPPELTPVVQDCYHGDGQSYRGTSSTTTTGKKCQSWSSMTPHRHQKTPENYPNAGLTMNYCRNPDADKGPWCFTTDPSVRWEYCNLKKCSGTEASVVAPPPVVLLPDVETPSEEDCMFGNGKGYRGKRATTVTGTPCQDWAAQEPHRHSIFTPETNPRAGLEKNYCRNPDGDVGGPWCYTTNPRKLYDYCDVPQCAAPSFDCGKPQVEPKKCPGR
T1 sequence (P00750 36-562): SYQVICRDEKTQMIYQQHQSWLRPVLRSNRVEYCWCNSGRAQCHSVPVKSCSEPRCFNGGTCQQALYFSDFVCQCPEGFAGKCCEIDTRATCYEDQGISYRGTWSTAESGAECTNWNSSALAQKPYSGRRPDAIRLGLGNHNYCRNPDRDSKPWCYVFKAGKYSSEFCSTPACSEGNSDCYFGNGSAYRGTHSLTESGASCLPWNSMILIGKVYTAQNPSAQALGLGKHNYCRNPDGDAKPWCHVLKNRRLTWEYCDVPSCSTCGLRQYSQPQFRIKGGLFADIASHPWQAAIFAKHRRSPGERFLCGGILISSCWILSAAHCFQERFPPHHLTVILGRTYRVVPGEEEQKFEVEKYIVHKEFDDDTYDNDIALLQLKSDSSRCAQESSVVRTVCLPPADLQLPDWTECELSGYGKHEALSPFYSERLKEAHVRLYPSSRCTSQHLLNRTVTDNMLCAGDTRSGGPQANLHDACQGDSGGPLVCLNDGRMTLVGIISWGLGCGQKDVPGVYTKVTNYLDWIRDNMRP
T3 sequence (P00742 235-488 limits assumed): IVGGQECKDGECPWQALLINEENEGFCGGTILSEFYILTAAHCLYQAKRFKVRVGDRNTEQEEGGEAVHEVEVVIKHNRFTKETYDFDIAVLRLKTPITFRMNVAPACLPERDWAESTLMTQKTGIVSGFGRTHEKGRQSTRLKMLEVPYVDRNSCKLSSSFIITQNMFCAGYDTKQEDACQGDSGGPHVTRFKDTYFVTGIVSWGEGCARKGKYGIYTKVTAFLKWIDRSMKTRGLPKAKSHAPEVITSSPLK
T3 sequence (P00742 41-179 partner limits assumed): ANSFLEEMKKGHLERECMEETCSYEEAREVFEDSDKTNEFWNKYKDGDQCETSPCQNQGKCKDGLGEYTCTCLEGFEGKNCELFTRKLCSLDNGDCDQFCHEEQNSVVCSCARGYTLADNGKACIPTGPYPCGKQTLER

Row | Kass × 10^6 (L/mole) t-PA [1] | Kass × 10^6 (L/mole) Plasmin [2] | Kass × 10^6 (L/mole) Xa [3] | Kass × 10^6 (L/mole) Human Thrombin [7] | Kass × 10^6 (L/mole) Trypsin [8] | Compound | Human Plasma Anticoagulation 2x Clotting time PT [4] | Human Plasma Anticoagulation 2x Clotting time TT [5] | Human Plasma Anticoagulation 2x Clotting time APTT [6]
1 | < 0.001 × 10^6 L/mole |  |  |  |  | N=C(N)NCc1ccc(CNC(=O)[C@@H]2CCCN2C(=O)[C@H](N)Cc2ccccc2)cc1 [Example 9, D-Phe-Pro-p-NHCH2 -C6 H4 CH2 NHC(NH)NH2.2TFA] |  |  | 
2 |  |  | < 0.009 × 10^6 L/mole | 0.02 × 10^6 L/mole |  | CCS(=O)(=O)N[C@H](Cc1ccccc1)C(=O)N1CCC[C@H]1C(=O)NCCc1cccc(N=C(N)N)c1.Cl [Example 37, EtSO2 -D-Phe-Pro-m-NHCH2 CH2 C6 H4 NHC(NH)NH2.HCl] | > 9,000 ng/mL | > 9,000 ng/mL | > 9,000 ng/mL
3 |  | < 0.001 × 10^6 L/mole | < 0.001 × 10^6 L/mole | 0.03 × 10^6 L/mole | 0.01 × 10^6 L/mole | N=C(N)Nc1cccc(CNC(=O)[C@@H]2CCCN2C(=O)[C@@H]2NCC[C@@H]3CCCC[C@@H]32)c1 [Example 40, D-1-Piq-Pro-m-NHCH2 C6 H4 NHC(NH)NH2.2HCl] | > 91,000 ng/mL | 35,100 ng/mL | > 91,000 ng/mL
4 |  |  |  | 5.3 × 10^6 L/mole | 2.1 × 10^6 L/mole | CCS(=O)(=O)N[C@H](CC1CCCCC1)C(=O)N1CCC[C@H]1C(=O)NCc1ccc(CN)cc1 [Example 81, EtSO2 -D-Cha-Pro-4-NHCH2 C6 H4 CH2 NH2.HCl] | 2,700 ng/mL | 110 ng/mL | 1,500 ng/mL
5 |  |  |  | 2.4 × 10^6 L/mole | 0.03 × 10^6 L/mole | CCS(=O)(=O)N[C@H](CC1CCCCC1)C(=O)N1CCC[C@H]1C(=O)NCc1ccnc(N)c1.Cl [Example 83, EtSO2 -D-Cha-Pro-4-NHCH2 -2-aminopyridine.HCl] | 1,300 ng/mL | 91 ng/mL | 1,000 ng/mL
6 |  |  | 0.071 × 10^6 L/mole | 0.14 × 10^6 L/mole |  | Cl.N=C(N)c1ccc(CNC(=O)CN(CCc2ccccc2)C(=O)CNCC(=O)O)cc1 [Example 89, HOOCCH2 -Gly-N-C6 H5 CH2 CH2 Gly-p-NHCH2 C6 H4 C(NH)NH2.HCl] | 37,000 ng/mL | 570 ng/mL | 51,000 ng/mL
7 | 0.04 × 10^6 L/mole | 1.8 × 10^6 L/mole | 4.3 × 10^6 L/mole | 40 × 10^6 L/mole |  | HOOCCH2 -D-Phe-Pro(4-cis-isoamyl)-p-NHCH2 C6 H4 C(NH)NH2.HCl [Example 50] | 420 ng/mL | 35 ng/mL | 460 ng/mL
8 |  |  | 2.5 × 10^6 L/mole | 30 × 10^6 L/mole |  | HOOCCH2 -D-hPhe-Pro-p-NHCH2 C6 H4 C(NH)NH2.HCl [Example 87] | 310 ng/mL | 9 ng/mL | 260 ng/mL

The next lines start with the compound.

Row | Compound | Kass × 10^6 (L/mole) t-PA [1] | Kass × 10^6 (L/mole) Plasmin [2] | Kass × 10^6 (L/mole) Xa [3] | Kass × 10^6 (L/mole) Human Thrombin [7] | Kass × 10^6 (L/mole) Trypsin [8] | Human Plasma Anticoagulation 2x Clotting time PT [4] | Human Plasma Anticoagulation 2x Clotting time TT [5] | Human Plasma Anticoagulation 2x Clotting time APTT [6]
9 | CCS(=O)(=O)N[C@H](Cc1ccccc1)C(=O)N1CCC[C@H]1C(=O)NCc1cccc(C(=N)N)c1 [Example 24, EtSO2 -D-Phe-Pro-m-NHCH2 -C6 H4 C(=NH)NH2.HCl] | < 0.001 × 10^6 L/mole | < 0.001 × 10^6 L/mole |  |  |  |  |  | 
10 | N=C(N)Nc1ccc(CNC(=O)[C@@H]2CCCN2C(=O)[C@@H]2NCC[C@@H]3CCCC[C@@H]32)cc1 [Example 38, D-1-Piq-Pro-p-NHCH2 C6 H4 NHC(NH)NH2.2HCl] |  | < 0.001 × 10^6 L/mole | < 0.001 × 10^6 L/mole | 1.1 × 10^6 L/mole | 0.07 × 10^6 L/mole | 11,100 ng/mL | 540 ng/mL | 6,100 ng/mL
11 | N=C(N)Nc1ccc(CCNC(=O)[C@@H]2CCCN2C(=O)[C@@H]2NCC[C@@H]3CCCC[C@@H]32)cc1 [Example 39, D-1-Piq-Pro-p-NHCH2 CH2 C6 H4 NHC (NH) NH2.2HCl] |  | < 0.001 × 10^6 L/mole | < 0.001 × 10^6 L/mole | 0.12 × 10^6 L/mole | < 0.02 × 10^6 L/mole | 78,600 ng/mL | 5,300 ng/mL | 69,200 ng/mL
12 | N=C(N)Nc1cccc(CCNC(=O)[C@@H]2CCCN2C(=O)[C@@H]2NCC[C@@H]3CCCC[C@@H]32)c1 [Example 41, D-1-Piq-Pro-m-NHCH2 CH2 C6 H4 NHC(NH)NH2.2HCl] |  | < 0.001 × 10^6 L/mole | < 0.001 × 10^6 L/mole | 0.01 × 10^6 L/mole | < 0.001 × 10^6 L/mole | > 91,000 ng/mL | 82,200 ng/mL | > 91,000 ng/mL
13 | O=C(O)CN[C@H](CC1CCCCC1)C(=O)N1CCC[C@H]1C(=O)NCC1CCNCC1 [Example 53, HO2 CCH2 -D-Cha-Pro-4-NHCH2 -piperidine.HCl] | < 0.001 × 10^6 L/mole | < 0.001 × 10^6 L/mole |  |  |  |  |  | 
14 | Cl.Nc1ccc(CNC(=O)[C@@H]2CCCN2C(=O)[C@@H](CC2CCCCC2)NCC(=O)O)c(F)c1 [Example 64, HO2 CCH2 -D-Cha-Pro-4-NHCH2 -3-F-C6 H3 NH2.HCl] |  |  | 0.01 × 10^6 L/mole | 15 × 10^6 L/mole |  | 650 ng/mL | 23 ng/mL | 900 ng/mL
15 | N=C(N)c1ccc(CNC(=O)[C@@H]2CCCN2C(=O)[C@@H](CC2CCCCC2)NCCCC(=O)O)cc1 [Example 85, HOOCCH2 CH2 CH2 -D-Cha-Pro-p-NHCH2 C6 H4 C(NH)NH2.HCl] |  |  |  | 265 × 10^6 L/mole | 30.8 × 10^6 L/mole | 197 ng/mL | 4.9 ng/mL | 100 ng/mL
16 | N=C(N)c1ccc(CNC(=O)[C@@H]2CCCN2C(=O)[C@@H](CCC2CCCCC2)NCC(=O)O)cc1 [Example 88, HOOCCH2 -D-hCha-Pro-p-NHCH2 C6 H4 C(NH)NH2.HCl] |  |  | 3.9 × 10^6 L/mole | 410 × 10^6 L/mole |  | 200 ng/mL | 4 ng/mL | 100 ng/mL
17 | CCC(CC)C(=O)N[C@@H](CCS(C)(=O)=O)C(=O)N1CCC[C@H]1C(=O)NCc1ccc(C(=N)N)cc1 [Example 91, (C2 H5)2 CHCO-Met(O2)-Pro-p-NHCH2 C6 H4 C(NH)NH2.HCl] |  |  | 0.007 × 10^6 L/mole | 3.6 × 10^6 L/mole |  | 3,500 ng/mL | 63 ng/mL | 3,000 ng/mL
18 | CS(=O)(=O)CC(=O)N[C@H](CC1CCCCC1)C(=O)N1CCC[C@H]1C(=O)NCc1ccc(C(=N)N)cc1 [Example 92, MeSO2 CH2 CO-D-Cha-Pro-P-NHCH2 C6 H4 C(NH)NH2.HCl] |  |  |  | 130 × 10^6 L/mole | 7.7 × 10^6 L/mole | 340 ng/mL | 8.9 ng/mL | 210 ng/mL
